Results as given in patent US20260132165A1, “MODIFIED NUCLEOSIDE ANALOGUE AND USE THEREOF, AND NUCLEOSIDE ANALOGUE-CONTAINING DOUBLE-STRANDED OLIGONUCLEOTIDE AND USE THEREOF” (RIGERNA THERAPEUTICS (BEIJING) CO., LTD., priority 2023, published 2026).
Strand notation (5' to 3'): a small letter for the sugar, then the base; units joined by * are phosphorothioate-linked, units joined directly phosphodiester-linked; [ ] holds rarer units or linkages, { } end groups; capitals alone tell only the bases. m = 2'-O-methyl; f = 2'-fluoro

Legend:
target gene SOD1 = assay: Test Example 3: inhibitory activity of lipid conjugated siRNA sequences on SOD1 by lateral ventricle administration to mice; assay type: in vivo, C57BL/6j mice; settings: 200 μg per mouse, D5
Protocol: 6-8 Week-old C57BL/6j mice were randomly grouped by body weight. Mice in each group were administered with siRNA by lateral ventricle administration, with an administration dose per mouse depending on a specific test. Taking Bregma in mouse brain as point 0 (origin), coordinates of right ventricle were found using the cerebral stereotaxic apparatus and position was marked on surface of skull (position of lateral ventricle was AP (anteroposterior, bregma anterior and posterior): −0.58 mm, ML (mediolateral, left and right of middle raphe): −1.2 mm, DV (dorsoventral, up and down cerebral dura mater plane): −2.2 mm). A dental electric drill was used to drill in the skull above a position of interest, and then medicament was injected into the lateral ventricle by a micro-dosing pump, wherein a total injection volume was 5 μL, and injection duration was 10 min. Needle was retained for 5 min after completion of injection, and then slowly withdrawn. Afterwards, needle hole was sealed with biomedical glue, and then head skin was adhered. After animals woke up, the animals were returned back to animal house and further fed. PBS control group was administered with the same volume of siRNA-free PBS solution. The day of administration was recorded as 0 day (D0), and the mice were sacrificed at observation point after the administration. Different parts of brain region were respectively taken and stored in the RNAlater.
RNA extraction: the above tissue samples were taken out from the RNAlater, and smashed for 60 s in Tissuelyser type II full-automatic tissue homogenizer, and total RNAs of various tissue samples were extracted using the full-automatic nucleic acid extraction instrument and the nucleic acid extraction kit from Zhejiang Hanwei Science and Technology Co. Ltd. according to methods described in instructions.
Reverse transcription reaction: 1 μg of the extracted total RNAs of the tissue samples were taken, and configured into 20 μL of reverse transcription system according to a method described in kit instructions by using a reverse transcription kit (Reverse Transcription System, A3500) from Promega Corporation and selecting Oligo (dT)15 reverse transcription primers, and the reverse transcription reaction was completed. After the reaction was ended, 80 μL of RNase-Free water was added into the reverse transcription system to provide cDNA solution for Real-time PCR detection.
(§1) Real-time PCR detection: 20 μL of Real-time PCR reaction system per PCR detection well was configured according to a method described in kit instructions using SYBR™ Select Master Mix (Catalog number: 4472908) reagent from ABI company. Each detection system contained 5 μL of cDNA template obtained from the above reverse transcription reaction, 10 μL of SYBR™ Select Master Mix, 0.5 μL of 10 μM upstream primers, 0.5 μL of 10 μM downstream primers, and 4 μL of RNase-Free H2O. The configured reaction system was subjected to Real-time PCR amplification on ABI StepOnePlus PCR instrument by a three-step method, wherein an amplification procedure was pre-denaturation at 95° C. for 10 min, then denaturation at 95° C. for 30 s, annealing at 60° C. for 30 s, and extension at 72° C. for 30 s; and processes of denaturation, annealing, and extension were repeated for 40 cycles. Gene expression differences were calculated by the ΔΔCt method after completion of the procedure.
In the real-time fluorescence quantitative PCR method, relative quantitative calculation of remaining expression level and inhibition rate of gene mRNA of interest in various test groups was performed by the ΔΔCt method, and the calculation method is as follows: […]

SOD1 = assay: Test Example 2: inhibitory activity of NM031 conjugated siRNA on SOD1 by intrathecal administration to mice; assay type: in vivo, C57BL/6j mice; settings: intrathecal, 800 μg per mouse, D9
Protocol: 6-8 Week-old C57BL/6j mice were randomly grouped into 4 groups by body weight. PBS group was dosed with siRNA-free PBS solution, RX899001 group was dosed with siRNA compound RX899001 without vector conjugation, RZ899001 group was dosed with siRNA RZ899001 (the sense strand with the Uhd conjugation at Position 4) prepared in Example 1, and RZ899008 was dosed with siRNA RZ899008 (the sense strand with the NM031 conjugation at Position 4) prepared in Example 1. Mices in each group were anesthetized with isoflurane. After anesthetization, lumbar region thereof was sprayed wet with 75% disinfecting alcohol. 10 μL (concentration […]) of siRNA drug containing PBS solvent was sucked with an insulin injection needle, the mouse lumbar region was pinched with the left-hand index finger and thumb, patella crest was propped against, and needle was held by the right hand. The needle was bent by forceps in advance, wherein the needle was first bent in the middle by 80° to 90°, then a front half part of the needle was bent in half, and the whole needle was bent in an are shape of about 60° to 90°. Mouse abdominal region was padded with an article with a thickness of about 2 cm. The needle was inserted from a joint of lumbar spines L5 and L6 of mice, and when inserting the needle, the hand was slightly inclined forwards to insert the needle. […] After completion of the injection, the needle was slowly withdrawn at uniform velocity. The administration dose to each mouse in RX899001 group, RZ899001 group and RZ899008 group was 800 μg, a total volume injected was 10 μL, and the PBS group was administered with the same volume of siRNA-free PBS solution. After the animals woke up, the animals were returned back to the animal feeding room and further fed. The day of administration was recorded as first day (D1), and the mice were sacrificed on ninth day (D9). Lumbar spine, thoracic spine and cerebellum were respectively taken and stored in the RNAlater.
RNA extraction: an appropriate amount of lumbar spine, thoracic spine and cerebellum samples were respectively taken out from the RNAlater, and smashed for 60 s in Tissuelyser type II full-automatic tissue homogenizer, and total RNAs of various tissue samples were extracted using the full-automatic nucleic acid extraction instrument and the nucleic acid extraction kit from Zhejiang Hanwei Science and Technology Co. Ltd. according to methods described in instructions. Reverse transcription reaction: 1 μg of the extracted total RNAs of various tissue samples were respectively taken, and configured into 20 μL of reverse transcription system according to a method described in kit instructions by using a reverse transcription kit (Reverse Transcription System, A3500) from Promega Corporation and selecting Oligo (dT)15 reverse transcription primers, and the reverse transcription reaction was completed. After the reaction was ended, 80 μL of RNase-Free water was added into the reverse transcription system to provide cDNA solution for Real-time PCR detection.
as §1, with “downstream primers (see TABLE 5 for primer information),” for “downstream primers,”, “cycles. […]” for “cycles. Gene expression differences were calculated by the ΔΔCt method after completion of the procedure.”

Row | Substance | Cerebellum Mean value of inhibition rate % (target gene SOD1) [%] | Cortex Mean value of inhibition rate % (target gene SOD1) [%] | Hippocampus Mean value of inhibition rate % (target gene SOD1) [%] | Cerebellum Mean value of inhibition rate % (SOD1) [%] | Lumbar spine Mean value of inhibition rate % (SOD1) [%] | Thoracic spine Mean value of inhibition rate % (SOD1) [%]
1 | RZ899053: siRNA, the sense strand with the NM058 conjugation at Position 6; SEQ ID NO: 6 / 22 (sense UUUUANUCCUCACUCUAAA; antisense UUUAGAGUGAGGAUUAAAAUG; NM058 conjugate at sense position 6; modified_base 1..2 OTHER; 2'-methoxy and 5'-thiophosphate modified nucleotides; modified_base 3..5 OTHER; 2'-methoxy modified nucleotides; modified_base 6 OTHER; n is the synthetic nucleotide analog NM058 as described in the disclosure(e.g., NM058-1 (1N-(9-[(2S,5R)-5-{[bis(4-methoxyphenyl)(phenyl)methoxy]methyl}-3,4-dihydroxytetrahydrofuran-2-yl]-9H-purin-6-yl)benzamide)).; modified_base 7..9 OTHE; modified_base 1 OTHER; 2'-methoxy and 5'-thiovinylphosphonate modified nucleotide; modified_base 2 OTHER; 2'-fluoro and 5'-thiophosphate modified nucleotide; …) | 42.55 | 55.87 | 74.13 |  |  | 
2 | RX899001: siRNA compound without vector conjugation, SOD1 sequence; sense SEQ ID NO: 1, antisense SEQ ID NO: 2 (sense mU*mU*mUmUmAmAfUfCfCmUmCmAmCmUmCmUmAmAmA; antisense mU*fU*mUmAmGfAmGmUmGmAmGmGmAfUmUfAmAmAmA*mU*mG) [reference compound] |  |  |  | 14.01 | 7.54 | 41.98
3 | RZ899001: control siRNA, the sense strand with the Uhd conjugation at Position 4; SEQ ID NO: 4 / 2 (sense UUUNAAUCCUCACUCUAAA; antisense UUUAGAGUGAGGAUUAAAAUG; Uhd conjugate at sense position 4; modified_base 1..2 OTHER; 2'-methoxy and 5'-thiophosphate modified nucleotides; modified_base 3 OTHER; 2'-methoxy modified nucleotide; modified_base 4 OTHER; n is the synthetic nucleotide analog Uhd as described in the disclosure.; modified_base 5..6 OTHER; 2'-methoxy modified nucleotides; modified_base 7..9 OTHER; 2'-fluoro modified nucleotides; modified_base 10..19 OTHER; 2'-methoxy modified nuc; modified_base 1 OTHER; 2'-methoxy and 5'-thiophosphate modified nucleotide; modified_base 2 OTHER; 2'-fluoro and 5'-thiophosphate modified nucleotide; …) [reference compound] |  |  |  | 60.22 | 64.13 | 60.27
4 | RZ899052: siRNA, the sense strand with the NM058 conjugation at Position 5; SEQ ID NO: 5 / 22 (sense UUUUNAUCCUCACUCUAAA; antisense UUUAGAGUGAGGAUUAAAAUG; NM058 conjugate at sense position 5; modified_base 1..2 OTHER; 2'-methoxy and 5'-thiophosphate modified nucleotides; modified_base 3..4 OTHER; 2'-methoxy modified nucleotides; modified_base 5 OTHER; n is the synthetic nucleotide analog NM058 as described in the disclosure(e.g., NM058-1 (1N-(9-[(2S,5R)-5-{[bis(4-methoxyphenyl)(phenyl)methoxy]methyl}-3,4-dihydroxytetrahydrofuran-2-yl]-9H-purin-6-yl)benzamide)).; modified_base 6 OTHER; modified_base 1 OTHER; 2'-methoxy and 5'-thiovinylphosphonate modified nucleotide; modified_base 2 OTHER; 2'-fluoro and 5'-thiophosphate modified nucleotide; …) | 53.02 | 62.93 | 87.35 |  |  | 
